Reference: ChEMBL document CHEMBL5579799, “Synthesis and biological evaluation of novel 18F-labeled 2,4-diaminopyrimidine derivatives for detection of ghrelin receptor in the brain” (Bioorg Med Chem Lett, 2024)

Tests used:
[1] = Ratio of drug concentration in rat brain to plasma at po administration measured after 1 hr
[2] = target: Growth hormone secretagogue receptor type 1 (Homo sapiens, UniProt Q92847)
Sequence of Growth hormone secretagogue receptor type 1 (Q92847 whole entry): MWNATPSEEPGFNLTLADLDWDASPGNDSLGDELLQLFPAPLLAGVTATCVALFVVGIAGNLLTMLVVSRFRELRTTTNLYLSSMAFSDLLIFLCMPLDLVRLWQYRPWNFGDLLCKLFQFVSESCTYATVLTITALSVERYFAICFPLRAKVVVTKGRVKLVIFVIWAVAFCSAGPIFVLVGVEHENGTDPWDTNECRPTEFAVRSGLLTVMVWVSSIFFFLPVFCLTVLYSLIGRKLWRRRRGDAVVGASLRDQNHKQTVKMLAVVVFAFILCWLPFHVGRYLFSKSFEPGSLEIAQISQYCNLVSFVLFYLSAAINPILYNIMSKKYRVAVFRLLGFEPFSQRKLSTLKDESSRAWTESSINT
Description: Displacement of [125I]ghrelin from human GHSR assessed as inhibition constant by competitive binding assay

| Kp at 1 h [1] | Ki [2] [nM] | Compound |
| --- | --- | --- |
| 3.05 | 108 | Nc1nc(N)c(-c2ccc(NCc3ccc(Cl)cc3)cc2)c(COCc2ccccc2)n1 |
|  | > 5000 | CCc1nc(N)nc(N)c1-c1ccc(NCc2ccc(OCCF)cc2)cc1 |
